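How tested: cells in 96-well plates exposed to compound for 48 hours at five concentrations. GI50 marks 50% less growth.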 Active and inactive are the calls of the source. Rule as the data show it: active = GI50 up to about 1.1 µM and inactive = higher.
Key:
Test in all cases: NCI anticancer screen, dose series, 48 h
[1] = tested on: CAKI-1
[2] = tested on: TK-10
[3] = tested on: NCI/ADR-RES
[4] = tested on: RXF 393
[5] = tested on: NCI-H23
[6] = tested on: UO-31
[7] = tested on: SW-620
[8] = tested on: SK-MEL-5
[9] = tested on: HOP-92
[10] = tested on: EKVX
[11] = tested on: K562
[12] = tested on: OVCAR-4
[13] = tested on: UACC-62
[14] = tested on: BT-549
[15] = tested on: RPMI-8226
[16] = tested on: MDA-MB-231
[17] = tested on: HCC 2998
[18] = tested on: IGROV-1

| Structure (SMILES) | GI50 [1] | GI50 [2] | GI50 [3] | GI50 [4] | GI50 [5] | GI50 [6] | GI50 [7] | GI50 [8] | GI50 [9] | GI50 [10] | GI50 [11] | GI50 [12] | GI50 [13] | GI50 [14] | GI50 [15] | GI50 [16] | GI50 [17] | GI50 [18] |
| --- | --- | --- | --- | --- | --- | --- | --- | --- | --- | --- | --- | --- | --- | --- | --- | --- | --- | --- |
| COC(=O)/C=C\C(C#N)(C#N)/N=C/c1ccc(C)s1 | 1.94 µM (inactive) | 1.97 µM (inactive) | 5.92 µM (inactive) | 1.46 µM (inactive) | 2.23 µM (inactive) | 1.67 µM (inactive) | 0.668 µM (active) | 6.92 µM (inactive) | 1.64 µM (inactive) | 5.31 µM (inactive) | 0.998 µM (active) | 3.78 µM (inactive) | 15.2 µM (inactive) | 2.83 µM (inactive) | 1.9 µM (inactive) | 5.61 µM (inactive) | 17.7 µM (inactive) | 2 µM (inactive) |
| CC(=O)N(C(C)=O)n1c(Cc2ccc(Cl)cc2)n[nH]c1=O | > 100 µM (inactive) | > 100 µM (inactive) | > 100 µM (inactive) | 28.5 µM (inactive) | > 100 µM (inactive) | > 100 µM (inactive) | > 100 µM (inactive) | > 100 µM (inactive) | > 100 µM (inactive) | > 100 µM (inactive) | > 100 µM (inactive) | > 100 µM (inactive) | > 100 µM (inactive) | > 100 µM (inactive) | > 100 µM (inactive) | > 100 µM (inactive) | > 100 µM (inactive) | > 100 µM (inactive) |
| COC(=O)CCCCC/C(=C\C(=O)C(Cl)(Cl)Cl)OC | 30.8 µM (inactive) | 29.4 µM (inactive) | 30.5 µM (inactive) | 16.7 µM (inactive) | 31.8 µM (inactive) | 84.5 µM (inactive) | 31.7 µM (inactive) | 38.8 µM (inactive) | 26.1 µM (inactive) | 24.7 µM (inactive) | 26.8 µM (inactive) | 19.5 µM (inactive) | 36 µM (inactive) | 38.9 µM (inactive) | 20.4 µM (inactive) | 80 µM (inactive) | 15.9 µM (inactive) | 12.7 µM (inactive) |
| C[n+]1ccc(/C2=C3\C=CC(=N3)/C(c3cc[n+](C)cc3)=c3/cc/c([nH]3)=C(\c3cc[n+](C)cc3)C3=N/C(=C(/c4cc[n+](C)cc4)C4C=CC2N4)C=C3)cc1 | > 100 µM (inactive) | > 100 µM (inactive) | > 100 µM (inactive) | > 91.4 µM (inactive) | > 100 µM (inactive) | > 100 µM (inactive) | > 100 µM (inactive) | 43 µM (inactive) | > 100 µM (inactive) | > 100 µM (inactive) | > 90.4 µM (inactive) | > 70 µM (inactive) | > 100 µM (inactive) | > 100 µM (inactive) | > 48.2 µM (inactive) | > 100 µM (inactive) | 84.7 µM (inactive) | 71.4 µM (inactive) |
| CC(C)(CO)CNc1nc(N)nc(Cl)c1C=O | 11.9 µM (inactive) | 46.9 µM (inactive) | 42.2 µM (inactive) | 17.6 µM (inactive) | 40.4 µM (inactive) | 62.1 µM (inactive) | 33.5 µM (inactive) | 30.7 µM (inactive) | 26.2 µM (inactive) | 45.9 µM (inactive) | 5.19 µM (inactive) | 36.1 µM (inactive) | 12.5 µM (inactive) | 41.1 µM (inactive) | 60.5 µM (inactive) | 30.1 µM (inactive) | 4.51 µM (inactive) | 20.1 µM (inactive) |
| N#CC[N+]1(Cc2ccccn2)CCCC1.O=S(=O)([O-])c1ccccc1 | > 100 µM (inactive) | > 100 µM (inactive) | > 100 µM (inactive) | > 100 µM (inactive) | > 100 µM (inactive) | > 100 µM (inactive) | > 100 µM (inactive) | > 100 µM (inactive) | > 100 µM (inactive) | > 100 µM (inactive) | > 100 µM (inactive) | > 100 µM (inactive) | > 100 µM (inactive) | > 100 µM (inactive) | > 100 µM (inactive) | > 100 µM (inactive) | > 100 µM (inactive) | > 100 µM (inactive) |
| Cc1nc2ccc(S(=O)(=O)Nc3ccccn3)cc2c(=O)n1NS(=O)(=O)c1ccccn1 | > 100 µM (inactive) | > 100 µM (inactive) | > 100 µM (inactive) | > 100 µM (inactive) | > 100 µM (inactive) | > 100 µM (inactive) | > 100 µM (inactive) | > 100 µM (inactive) | > 100 µM (inactive) | > 100 µM (inactive) | > 100 µM (inactive) | > 100 µM (inactive) | > 100 µM (inactive) | > 100 µM (inactive) | > 100 µM (inactive) | > 100 µM (inactive) | > 100 µM (inactive) | > 100 µM (inactive) |
